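Dose response: 5 concentrations. Exposure: 48 h. Format: 96-well plates. Endpoint: linear interpolation; highest concentration if not reached. Abbreviation: GI50, concentration required for 50% inhibition of growth. TGI denotes the concentration required for complete inhibition of growth.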
Key:
Test in all cases: NCI tumour cell line growth inhibition, 48 h
SK-MEL-28 melanoma = tested on: SK-MEL-28 melanoma
PC-3 prostate = tested on: PC-3 prostate
786-0 renal = tested on: 786-0 renal
EKVX NSCLC = tested on: EKVX NSCLC
UO-31 renal = tested on: UO-31 renal
SF-539 CNS = tested on: SF-539 CNS
CAKI-1 renal = tested on: CAKI-1 renal
SF-268 CNS = tested on: SF-268 CNS
A498 renal = tested on: A498 renal
SK-MEL-2 melanoma = tested on: SK-MEL-2 melanoma
OVCAR-8 ovarian = tested on: OVCAR-8 ovarian
HCC-2998 colon = tested on: HCC-2998 colon
HOP-92 NSCLC = tested on: HOP-92 NSCLC
SNB-75 CNS = tested on: SNB-75 CNS
MDA-MB-435 = tested on: MDA-MB-435
UACC-257 melanoma = tested on: UACC-257 melanoma
T-47D breast = tested on: T-47D breast
NCI-H460 lung = tested on: NCI-H460 lung
SF-295 CNS = tested on: SF-295 CNS
OVCAR-5 ovarian = tested on: OVCAR-5 ovarian
SK-OV-3 ovarian = tested on: SK-OV-3 ovarian
IGROV1 ovarian = tested on: IGROV1 ovarian
U251 CNS = tested on: U251 CNS
HOP-62 NSCLC = tested on: HOP-62 NSCLC
HL-60(TB) leukemia = tested on: HL-60(TB) leukemia
NCI/ADR-RES ovarian = tested on: NCI/ADR-RES ovarian
K-562 leukemia = tested on: K-562 leukemia
RPMI-8226 leukemia = tested on: RPMI-8226 leukemia

## COc1cccc(N2CCN(c3ncnc4c3[nH]c3ccc(F)cc34)C[C@@H]2C)c1
SK-MEL-28 melanoma
  GI50: 1470 nM
  TGI: 2910 nM
PC-3 prostate
  GI50: 912 nM
  TGI: 3540 nM
786-0 renal
  GI50: 2050 nM
  TGI: 5240 nM
EKVX NSCLC
  GI50: 1880 nM
  TGI: 6160 nM
UO-31 renal
  GI50: 467 nM
  TGI: 1680 nM
SF-539 CNS
  GI50: 2270 nM
  TGI: 5650 nM
CAKI-1 renal
  GI50: 1670 nM
  TGI: 5580 nM
SF-268 CNS
  GI50: 1980 nM
  TGI: 6720 nM
A498 renal
  GI50: 2850 nM
  TGI: 8030 nM
SK-MEL-2 melanoma
  GI50: 1440 nM
  TGI: 2820 nM
OVCAR-8 ovarian
  GI50: 762 nM
  TGI: 2040 nM
HCC-2998 colon
  GI50: 2610 nM
  TGI: 8320 nM
HOP-92 NSCLC
  GI50: 2280 nM
  TGI: 6920 nM
SNB-75 CNS
  GI50: 1690 nM
  TGI: 3060 nM
MDA-MB-435
  GI50: 1590 nM
  TGI: 3180 nM
UACC-257 melanoma
  GI50: 1880 nM
  TGI: 3620 nM
T-47D breast
  GI50: 310 nM
  TGI: 1640 nM
NCI-H460 lung
  GI50: 2530 nM
  TGI: 7340 nM
SF-295 CNS
  GI50: 1610 nM
  TGI: 3350 nM
OVCAR-5 ovarian
  GI50: 2280 nM
  TGI: 6160 nM
SK-OV-3 ovarian
  GI50: 2430 nM
  TGI: 7470 nM
IGROV1 ovarian
  GI50: 1710 nM
  TGI: 4670 nM
U251 CNS
  GI50: 2280 nM
  TGI: 6080 nM
HOP-62 NSCLC
  GI50: 1230 nM
  TGI: 2760 nM
HL-60(TB) leukemia
  GI50: 1250 nM
  TGI: 5190 nM
NCI/ADR-RES ovarian
  GI50: 1210 nM
  TGI: 4350 nM
K-562 leukemia
  GI50: 1120 nM
  TGI: > 100000 nM
RPMI-8226 leukemia
  GI50: 492 nM
  TGI: 3600 nM

Source: PubChem BioAssay (NCI)
